Measured values as given in the supplement of paper PMC6045584.
± gives the standard deviation of the averaged measurements.

Legend:
[1] = compound: T1, COc1cccc2c1C(=O)c1c(O)c3c(c(O)c1C2=O)C[C@@](O)(C(=O)CO)C[C@@H]3O[C@H]1C[C@H](N)[C@H](O)[C@H](C)O1 [DOXORUBICIN]; test: surviving fraction relative to DMSO-only wells; higher = less growth inhibition; conditions: exposure time: 5 days
In short: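 Surviving fraction was calculated by normalising CellTiter-Glo luminescence to the median of DMSO-only wells. Tumour cell lines in log phase were seeded in 384-well plates at 250–500 cells per well, and 24 hours later were exposed continuously for five days to inhibitors at 0.5, 1, 5, 10, 50, 100, 500 and 1000 nM.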

[2] = compound: T1, DOXORUBICIN; test: area under dose-response curve of surviving fraction (unscaled, Aref=0) (surviving fraction x log10(nM)); higher = more resistant; conditions: exposure time: 5 days; dose range 0.5-1000 nM
In short: (§1)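 Three screens per tumour cell line were run in 384-well plates at eight inhibitor concentrations from 0.5 to 1000 nM over five days. Surviving fractions, from CellTiter-Glo luminescence normalised to DMSO-only wells, were fitted with 3-parameter logistic curves in the drc R package. The reported area under the curve is the unscaled activity area. It spans log10 dose, and Aref is 0.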

[3] = compound: O=c1[nH]cc(F)c(=O)[nH]1 [FLUOROURACIL]; test: as above; conditions: exposure time: 5 days; dose range 0.5-1000 nM
In short: as §1

[4] = compound: CCN(CC)CCCCNc1ncc2cc(-c3cc(OC)cc(OC)c3)c(NC(=O)NC(C)(C)C)nc2n1; test: as above; conditions: exposure time: 5 days; dose range 0.5-1000 nM
In short: as §1

[5] = compound: CS(=O)(=O)CCNCc1ccc(-c2ccc3ncnc(Nc4ccc(OCc5cccc(F)c5)c(Cl)c4)c3c2)o1 [LAPATINIB]; test: as above; conditions: exposure time: 5 days; dose range 0.5-1000 nM
In short: as §1

[6] = compound: CN(C)CC[C@H](CSc1ccccc1)Nc1ccc(S(=O)(=O)NC(=O)c2ccc(N3CCN(Cc4ccccc4-c4ccc(Cl)cc4)CC3)cc2)cc1[N+](=O)[O-] [ABT-737]; test: as above; conditions: exposure time: 5 days; dose range 0.5-1000 nM
In short: as §1

[7] = compound: Oc1ccc(/C=C/c2cc(O)cc(O)c2)cc1 [RESVERATROL]; test: as above; conditions: exposure time: 5 days; dose range 0.5-1000 nM
In short: as §1

[8] = compound: CN1CC[C@H](c2c(O)cc(O)c3c(=O)cc(-c4ccccc4Cl)oc23)[C@H](O)C1 [FLAVOPIRIDOL]; test: as above; conditions: exposure time: 5 days; dose range 0.5-1000 nM
In short: as §1

[9] = compound: Nc1ncn([C@H]2C[C@H](O)[C@@H](CO)O2)c(=O)n1 [DECITABINE]; test: as above; conditions: exposure time: 5 days; dose range 0.5-1000 nM
In short: as §1

[10] = compound: CC[C@@H](C(=O)[C@@H](C)[C@@H](O)[C@H](C)[C@@H]1O[C@@H]([C@@H](CC)C(=O)O)CC[C@@H]1C)[C@H]1O[C@]2(C=C[C@@H](O)[C@]3(CC[C@@](C)([C@H]4CC[C@](O)(CC)[C@H](C)O4)O3)O2)[C@H](C)C[C@@H]1C [SALINOMYCIN]; test: as above; conditions: exposure time: 5 days; dose range 0.5-1000 nM
In short: as §1

[11] = compound: COc1cc2c(cc1O)CC[C@@H]1[C@@H]2CC[C@]2(C)[C@@H](O)CC[C@@H]12 [2-METHOXYESTRADIOL]; test: as above; conditions: exposure time: 5 days; dose range 0.5-1000 nM
In short: as §1

[12] = compound: CS(=O)(=O)c1ccc(C(=O)Nc2ccc(Cl)c(-c3ccccn3)c2)c(Cl)c1 [VISMODEGIB]; test: as above; conditions: exposure time: 5 days; dose range 0.5-1000 nM
In short: as §1

[13] = compound: C=CCNC1=C2C[C@@H](C)C[C@H](OC)[C@H](O)[C@@H](C)/C=C(\C)[C@H](OC(N)=O)[C@@H](OC)/C=C\C=C(/C)C(=O)NC(=CC1=O)C2=O [17-AAG]; test: as above; conditions: exposure time: 5 days; dose range 0.5-1000 nM
In short: as §1

HU09 BONE
surviving fraction ([1]; 0.5 nM): 0.924 ± 0.04 | surviving fraction ([1]; 1 nM): 0.964 ± 0.11 | surviving fraction ([1]; 5 nM): 0.861 ± 0.13 | surviving fraction ([1]; 10 nM): 0.539 ± 0.1 | surviving fraction ([1]; 50 nM): 0.0467 ± 0.0046 | surviving fraction ([1]; 100 nM): 0.0277 ± 0.005 | surviving fraction ([1]; 500 nM): 0.0227 ± 0.0023 | surviving fraction ([1]; 1000 nM): 0.0247 ± 0.0021 | area under dose-response curve [2]: 1.38 | area under dose-response curve [3]: 3.06 | area under dose-response curve [4]: 3.06 | area under dose-response curve [5]: 3.23 | area under dose-response curve [6]: 3.04 | area under dose-response curve [7]: 3.57 | area under dose-response curve [8]: 2.06 | area under dose-response curve [9]: 3.33 | area under dose-response curve [10]: 2.91 | area under dose-response curve [11]: 3.01 | area under dose-response curve [12]: 3.11 | area under dose-response curve [13]: 1.08

JIMT1 BREAST
surviving fraction ([1]; 0.5 nM): 0.943 ± 0.0048 | surviving fraction ([1]; 1 nM): 0.963 ± 0.025 | surviving fraction ([1]; 5 nM): 0.994 ± 0.04 | surviving fraction ([1]; 10 nM): 0.901 ± 0.036 | surviving fraction ([1]; 50 nM): 0.56 ± 0.055 | surviving fraction ([1]; 100 nM): 0.48 ± 0.017 | surviving fraction ([1]; 500 nM): 0.225 ± 0.012 | surviving fraction ([1]; 1000 nM): 0.087 ± 0.019 | area under dose-response curve [2]: 2.21 | area under dose-response curve [3]: 3.03 | area under dose-response curve [4]: 3.25 | area under dose-response curve [5]: 3.27 | area under dose-response curve [6]: 3.44 | area under dose-response curve [7]: 3.4 | area under dose-response curve [8]: 2.19 | area under dose-response curve [9]: 2.86 | area under dose-response curve [10]: 2.96 | area under dose-response curve [11]: 3.13 | area under dose-response curve [12]: 3 | area under dose-response curve [13]: 1.58

KPD BONE
surviving fraction ([1]; 0.5 nM): 1.06 ± 0.057 | surviving fraction ([1]; 1 nM): 0.963 ± 0.056 | surviving fraction ([1]; 5 nM): 0.897 ± 0.075 | surviving fraction ([1]; 10 nM): 0.909 ± 0.05 | surviving fraction ([1]; 50 nM): 0.242 ± 0.048 | surviving fraction ([1]; 100 nM): 0.116 ± 0.011 | surviving fraction ([1]; 500 nM): 0.0297 ± 0.0031 | surviving fraction ([1]; 1000 nM): 0.0317 ± 0.0015 | area under dose-response curve [2]: 1.78 | area under dose-response curve [3]: 3.27 | area under dose-response curve [4]: 3.24 | area under dose-response curve [5]: 3.44 | area under dose-response curve [6]: 3.2 | area under dose-response curve [7]: 3.44 | area under dose-response curve [8]: 2.05 | area under dose-response curve [9]: 2.08 | area under dose-response curve [10]: 2.62 | area under dose-response curve [11]: 3.16 | area under dose-response curve [12]: 3.27 | area under dose-response curve [13]: 1.75

LM7 BONE
surviving fraction ([1]; 0.5 nM): 0.95 ± 0.033 | surviving fraction ([1]; 1 nM): 1.05 ± 0.073 | surviving fraction ([1]; 5 nM): 0.902 ± 0.051 | surviving fraction ([1]; 10 nM): 0.818 ± 0.014 | surviving fraction ([1]; 50 nM): 0.245 ± 0.016 | surviving fraction ([1]; 100 nM): 0.229 ± 0.018 | surviving fraction ([1]; 500 nM): 0.0483 ± 0.0038 | surviving fraction ([1]; 1000 nM): 0.0483 ± 0.0065 | area under dose-response curve [2]: 1.78 | area under dose-response curve [3]: 2.96 | area under dose-response curve [4]: 3.22 | area under dose-response curve [5]: 3.39 | area under dose-response curve [6]: 3.48 | area under dose-response curve [7]: 3.63 | area under dose-response curve [8]: 2.3 | area under dose-response curve [9]: 3.06 | area under dose-response curve [10]: 3.08 | area under dose-response curve [11]: 3.02 | area under dose-response curve [12]: 3.28 | area under dose-response curve [13]: 1.46

MCF7 BREAST
surviving fraction ([1]; 0.5 nM): 0.857 ± 0.038 | surviving fraction ([1]; 1 nM): 0.868 ± 0.042 | surviving fraction ([1]; 5 nM): 0.859 ± 0.053 | surviving fraction ([1]; 10 nM): 0.7804 ± 0.0075 | surviving fraction ([1]; 50 nM): 0.589 ± 0.032 | surviving fraction ([1]; 100 nM): 0.469 ± 0.0095 | surviving fraction ([1]; 500 nM): 0.0898 ± 0.0037 | surviving fraction ([1]; 1000 nM): 0.0774 ± 0.008 | area under dose-response curve [2]: 1.99 | area under dose-response curve [3]: 2.99 | area under dose-response curve [4]: 2.89 | area under dose-response curve [5]: 3.11 | area under dose-response curve [6]: 3.27 | area under dose-response curve [7]: 3.21 | area under dose-response curve [8]: 2.18 | area under dose-response curve [9]: 2.83 | area under dose-response curve [10]: 2.78 | area under dose-response curve [11]: 2.89 | area under dose-response curve [12]: 2.99 | area under dose-response curve [13]: 1.92

MDAMB134 BREAST
surviving fraction ([1]; 0.5 nM): 0.865 ± 0.0028 | surviving fraction ([1]; 1 nM): 0.835 ± 0.098 | surviving fraction ([1]; 5 nM): 1.03 ± 0.021 | surviving fraction ([1]; 10 nM): 0.9 ± 0.098 | surviving fraction ([1]; 50 nM): 0.734 ± 0.023 | surviving fraction ([1]; 100 nM): 0.693 ± 0.085 | surviving fraction ([1]; 500 nM): 0.106 ± 0.019 | surviving fraction ([1]; 1000 nM): 0.0295 ± 0.0035 | area under dose-response curve [2]: 2.35 | area under dose-response curve [3]: 2.74 | area under dose-response curve [4]: 2.92 | area under dose-response curve [5]: 3.79 | area under dose-response curve [6]: 3.13 | area under dose-response curve [7]: 3.44 | area under dose-response curve [8]: 2.96 | area under dose-response curve [9]: 3.67 | area under dose-response curve [10]: 3.52 | area under dose-response curve [11]: 2.73 | area under dose-response curve [12]: 2.56 | area under dose-response curve [13]: 1.91
